How the values were obtained:
[1] = UV absorption spectrum in CH2Cl2; assay type: physicochemical
[2] = Miscibility with cosmetic solvents such as Cétiol LC (liposolubility); conditions: such as Cétiol LC (Cocoyl caprylate caprate)
[3] = Photostability under irradiation at high dilution with a Heraeus 150 W Hg-lamp; conditions: irradiation at high dilution (50 ppm)

CCCCC=CC(C)c1cc(C)cc(-n2nc3ccccc3n2)c1O (centres unmarked) [8% byproduct, 2-(benzotriazole-2-yl)-4-methyl-6-(3-octen-2-yl)-phenol]
UV absorption maximum, first (UV-B) band [1]: 306 nm | UV absorption maximum, second (UV-A) band [1]: 344 nm

C=CC(CCCCC)c1cc(C)cc(-n2nc3ccccc3n2)c1O (centres unmarked) [Example 1, 2-Benzotriazole-2-yl-4-methyl-6-(1-octen-3-yl)-phenol]
UV absorption maximum, first (UV-B) band [1]: 306 nm | UV absorption maximum, second (UV-A) band [1]: 344 nm | Miscibility with cosmetic solvents [2]: easily mixable | Photostability [3]: photostable | melting point: 37 to 38 °C

C=CC(CCC)c1cc(C(C)(C)CC(C)(C)C)cc(-n2nc3ccccc3n2)c1O (centres unmarked) [Example 2, 2-(benzotriazole-2-yl)-4-(1,1,3,3-tetramethylbutyl)-6-(1-hexen-3-yl)-phenol]
UV absorption maximum, first (UV-B) band [1]: 305 nm | UV absorption maximum, second (UV-A) band [1]: 343 nm | melting point: 80 to 81 °C

CCCCCC(CC)c1cc(C)cc(-n2nc3ccccc3n2)c1O (centres unmarked) [Example 3, 2-(benzotriazole-2-yl)-4-methyl-6-(3-octyl)-phenol]
UV absorption maximum, first (UV-B) band [1]: 306 nm | UV absorption maximum, second (UV-A) band [1]: 346 nm

CCCC(CC)c1cc(C(C)(C)CC(C)(C)C)cc(-n2nc3ccccc3n2)c1O (centres unmarked) [Example 4, 2-(benzotriazole-2-yl)-4-(1,1,3,3-tetramethylbutyl)-6-(3-hexyl)-phenol]
UV absorption maximum, first (UV-B) band [1]: 306 nm | UV absorption maximum, second (UV-A) band [1]: 346 nm
